# Measurements from publication PMC9454270, “Peptidomimetic Small-Molecule Inhibitors of 3CLPro Activity and Spike–ACE2 Interaction: Toward Dual-Action Molecules against Coronavirus Infections” (The Journal of Organic Chemistry, 2022).
# *1 amine or outer side, *2 acyl side, *3 side chain or, on linkers, in order; H or OH if unused. Where a SMILES comes first, the peptide text is derived from it. [ ]: non-standard residue; d: D form. X1 = O=C1CCN([*:1])CCN1[C@@H](Cc1ccccc1)C(=O)[*:2]
# Key:
# [1] = target: SARS-CoV-2 spike/ACE2 complex (RBD of Spike S protein binding to human receptor ACE2) (Severe acute respiratory syndrome coronavirus 2, UniProt P0DTC2); assay: biochemical; design: species or system SARS-CoV-2 / human
# [2] = target: T1, 3CLPro enzyme, the main protease of SARS-CoV-2 (Severe acute respiratory syndrome coronavirus 2, UniProt P0DTD1); assay: biochemical; format: biochemical; conditions: for % In(3CLPro) at 100 μM: pH 7
# T1 construct: 3CLPro enzyme, the main protease of SARS-CoV-2
# [3] = system: SARS-CoV-2 infection; conditions: cited from earlier work
Compound,% In(spike–ACE2) at 100 μM [1],IC50 [1],IC50 [2],% In(3CLPro) at 100 μM [2],inhibition potency toward SARS-CoV-2 infection [3]
"NC(=O)CC[C@H](NC(=O)[C@H](Cc1ccc(O)cc1)NC(=O)[C@H](Cc1ccccc1)N1CCN(C(=O)[C@H](CC(=O)O)NC(=O)[C@@H](N)CCC(=O)O)CCC1=O)C(N)=O [compound 16, H-ED(11b)YQ-NH2] (H-ED[X1]YQ-NH2)",66–76%,20 µM,127 µM,45–57%,–
"NC(=O)CC[C@H](NC(=O)[C@H](Cc1ccc(O)cc1)NC(=O)[C@H](Cc1ccccc1)N1CCN(C(=O)[C@H](CC(=O)O)NC(=O)[C@@H](N)CCC(=O)O)CC1=O)C(N)=O [compound 15, H-ED(4b)YQ-NH2]",–,–,15 µM,90–91%,–
H-EDLFYQ-NH2 [EDLFYQ (SAP-6)],–,–,–,–,millimolar range
